Series [1] deals with NIH-3T3 cells infected with HA-HaloTag-H-RasG12V. The series is described as follows: Focus formation assay, HA-HaloTag-H-RasG12V cells. In kind it is cell-based, mouse. The note with it: 1 μM, 1% FBS, day 6. The method, then:
(§1) One hundred thousand NIH-3T3 cells infected with HA-HaloTag-H-RasG12V and HA-HaloTag(D106A)-H-RasG12V were plated onto 10-cm cell culture plates in 10% FBS with DMEM. The next day, the media was replaced with 1% FBS media and the cells were administered either vehicle or 1 μM HyT13. The media and the drug were replaced every two days. On day 6, the foci were photographed and counted as the number of distinct foci per 1-cm^2 area.
(§2) We next explored the functional utility of HaloTag-based degradation of an oncogene by HyT13 both in cell culture and in mice. The small GTPase H-Ras is one of the most commonly mutated genes in cancer, with up to […] of cancers harboring activating mutations in this gene^35. Activating mutations, such as the H-RasG12V allele, lead to decreased dependence on extracellular mitogenic signals. […] When H-RasG12V expressing cells are grown in culture under low serum conditions they lose cell-to-cell contact inhibition and form distinct foci instead of growing as a cellular monolayer. Furthermore, these transformed cells are capable of tumor formation when injected into immuno-compromised nude mice^36,37. We investigated whether (1) HaloTag-H-RasG12V driven focus formation can be suppressed in NIH-3T3 cells and (2) HaloTag-H-RasG12V driven tumor burden in mice can be reduced by administration of HyT13. […]

Series [2] has as its system NIH-3T3 cells infected with HA-HaloTag(D106A)-H-RasG12V. The series is described as follows: Focus formation assay, HA-HaloTag(D106A)-H-RasG12V cells. Type of series: cell-based, mouse. Conditions: 1 μM, 1% FBS, day 6. The method, then: as §1, §2
For a further series, the target named is T1, EGFP-HaloTag (Rhodococcus rhodochrous, UniProt P0A3G2, C176G/H272F/K175M/Y273L).
T1 construct: The HaloTag protein was obtained from pHT2 vector (Promega); expressed in transfected cells
The series is described as follows: Flow cytometry of intracellular GFP fluorescence in HeLa cells expressing EGFP-HaloTag. Type of series: cell-based. Conditions: 1 μM, 24 hours. As to the method: Stable HeLa cells were raised by cotransfection of pCS2/EGFP-HaloTag and p-Puro containing the puromycin resistance gene. A clonal population of cells expressing EGFP-HaloTag was isolated. These cells were treated with vehicle or 1 μM HyT13 for 24 hours, washed with PBS and trypsinized. The cells were resuspended in FBS-free DMEM and the intracellular GFP level was measured by FACSCalibur (BD Biosciences).
As the luciferase assay relied on the loss-of-activity of the luciferase-HaloTag fusion protein, we wanted to determine whether the decrease in luciferase activity resulted from the degradation of the entire fusion protein or perhaps simply inhibition of luciferase activity. We generated a stable Flp-In 293 cell line with a single integration site containing HA-EGFP-HaloTag fusion protein, and employed this cell line to perform kinetic studies with HyT13. […] Consistent with our previous observations, treatment of these cells with 1 μM of HyT13 for 24 hours reduced the mean fluorescence intensity of cells almost 7-fold. Together, these findings provide the first experimental evidence that hydrophobic tagging represents a viable strategy for the control of protein levels.
In general terms: A flow cytometer gives signals particle by particle.

The nature of series [3]: Maximum tolerated dose experiment / weight gain in nude mice. Type of series: in vivo. An excerpt:
Nude mice were daily IP injected with indicated concentrations of HyT13 and were monitored for weight gain during the 14-day experiment. Shown is the percent weight gained during the 14-day period for each treatment group ±SEM. Each treatment group consisted of 7 mice.
(§3) To examine whether the HaloTag:HyT13 based system could be used in mouse models to relieve the H-RasG12V-driven tumor burden, we first evaluated the pharmacokinetics of HyT13. We performed a maximum tolerated dose experiment with HyT13 in nude mice at doses up to 100 mg/kg over a 14-day treatment regimen. […] Next, we sought to determine the serum bioavailability of HyT13 following injections. HyT13 was administered at 25 mg/kg by intraperitoneal (IP) injection into Swiss Webster mice and the serum was collected at 1 and 24 hours post-injection. At 1 hour post HyT13 administration the blood serum concentration was approximately 2 μM, and by 24 hours the HyT13 concentration had dropped to about 500 nM (FIG. 10). Based on our previous experiments in a cell culture setting, we speculated that these serum HyT13 concentrations would be sufficient to suppress H-RasG12V tumor formation in mice. To test this, we injected NIH-3T3 cells expressing HA-HaloTag-H-RasG12V into the flank of nude mice and on the same day started a daily treatment regimen of vehicle, 25 mg/kg HyT13 or 100 mg/kg HyT13. […]

Series [4] deals with NIH-3T3 cells expressing HA-HaloTag-H-RasG12V. Nature of the series: Tumor formation assay in nude mice. Type of series: in vivo. Conditions: 25 mg/kg or 100 mg/kg daily IP. The method, then: One hundred thousand NIH-3T3 cells expressing HA-HaloTag-H-RasG12V were injected into the flank of anesthetized 6-week old female nu/nu nude mice (Charles River Laboratories). Two hours later, the mice were IP injected with either vehicle (10 μl, volume, with 5 μl, DMSO and 5 μl, of Cremophor EL), 25 mg/kg HyT13 or 100 mg/kg HyT13. The drug injections continued daily until the end of the experiment. Upon the appearance of tumors on day 7, the tumors were measured daily with calipers, and their volumes were calculated using the formula: a(b)^2/2, where a and b represent the longest and shortest diameters of the tumor, respectively.
as §3, with “10).” for “10). Based on our previous experiments in a cell culture setting, we speculated that these serum HyT13 concentrations would be sufficient to suppress H-RasG12V tumor formation in mice. To test this, we injected NIH-3T3 cells expressing HA-HaloTag-H-RasG12V into the flank of nude mice and on the same day started a daily treatment regimen of vehicle, 25 mg/kg HyT13 or 100 mg/kg HyT13.”

“Also recorded” adds a separate entry of the source.

As to `O=C(CC12CC3CC(CC(C3)C1)C2)NCCOCCOCCCCCCCl` [HyT13, 2-((3r,5r,7r)-Adamantan-1-yl)-N-(2-(2-((6-chlorohexyl)oxy)ethoxy)ethyl)acetamide], the focus formation result is recorded as “had grown a normal monolayer of cells” in series [1] and “had formed many foci” in series [2]. Also, the “reduction of mean fluorescence intensity” value on EGFP-HaloTag is reported as approximately 7 fold. Moreover, the weight gain entry in series [3] (mice injected daily at 100 mg/kg for 14 days) is on record as “gained weight normally”. Further, the “toxicity / phenotype in mice” value in series [3] (nude mice, daily IP, doses up to 100 mg/kg, 14 days) is listed as “No obvious phenotype was observed; also recorded: no observed toxicity”. Besides, in series [4], the “tumor size relative to vehicle treated mice (times smaller)” value was 6 times.
